Measurements reported in PMC5839409, “Targeting intracellular B2 receptors using novel cell-penetrating antagonists to arrest growth and induce apoptosis in human triple-negative breast cancer” (Oncotarget, 2018).
Square brackets hold non-standard residues; d marks the D form. Peptide text beside a SMILES is read from it.

Tests used:
MDA-MB-231 cells = assay: Anchorage-dependent clonogenic assay; format: cell-based, human; conditions: 10-14 days
Procedure: MDA-MB-231 cells were plated at 200 cells/well in a six-well dish in 2 ml DMEM medium containing 10% FBS. […] After 10 to 14 days, colonies were fixed and stained with 0.5% methylene blue in 50% ethanol. Excess of staining solution was removed carefully with tap water and the plates were dried overnight. Colony counting and densitometric analyses (to measure total colony numbers and surface areas) were performed using the Image Pro Plus 5.1 software.

[1] = target: T1, B2R endogenously expressed in the human de-endothelized umbilical veins (Homo sapiens, UniProt P30411); assay: Functional bioassay on isolated human de-endothelized umbilical veins (hUV); conditions: read-out: biological activity; agonists, isometric contraction of human vessels
T1 construct: B2R endogenously expressed in the human de-endothelized umbilical veins (hUV); from tissue; host or cells: human umbilical vein, de-endothelized
T1 sequence (P30411 1-391): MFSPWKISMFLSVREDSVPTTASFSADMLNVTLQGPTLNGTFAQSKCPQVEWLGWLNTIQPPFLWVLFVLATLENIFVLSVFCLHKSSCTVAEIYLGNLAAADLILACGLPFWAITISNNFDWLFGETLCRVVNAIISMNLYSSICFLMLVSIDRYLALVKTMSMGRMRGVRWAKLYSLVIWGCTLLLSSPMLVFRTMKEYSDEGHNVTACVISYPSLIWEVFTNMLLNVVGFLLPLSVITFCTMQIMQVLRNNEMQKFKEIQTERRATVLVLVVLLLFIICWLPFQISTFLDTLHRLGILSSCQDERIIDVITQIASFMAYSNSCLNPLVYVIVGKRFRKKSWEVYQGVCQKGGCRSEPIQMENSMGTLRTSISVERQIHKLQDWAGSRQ
Procedure: For testing the pharmacological activities of agonists, complete concentration-contractile response curves to agents were done at the B2R endogenously expressed in the human de-endothelized umbilical veins (hUV), as previously described. EC50 values (or potencies) of the agonists were calculated from the obtained concentration-response curves. […] The collection of umbilical cords for the bioassays was approved by the local ethical committee, and maternal consent was obtained in every case.

human B2R = target: T2, human B2R (Homo sapiens, UniProt P30411); assay: Radioligand competition binding on live adherent HEK-293T cells transiently transfected with hB2R; conditions: read-out: binding affinity; agonists, HEK-293T cells transfected with B2R
T2 construct: expressed in transfected cells; host or cells: HEK-293T
T2 sequence (P30411 1-391): T1 sequence (P30411 1-391)

Compound: N=C(N)NCCC[C@H](NC(=O)[C@H](Cc1ccccc1)NC(=O)[C@@H]1CCCN1C(=O)[C@H](CO)NC(=O)[C@H](Cc1ccccc1)NC(=O)CNC(=O)[C@@H]1CCCN1C(=O)[C@@H]1CCCN1C(=O)[C@H](CCCNC(=N)N)NC(=O)CNC(=O)CNC(=O)CNC(=O)[C@@H](CCCNC(=N)N)NC(=O)[C@@H](CCCNC(=N)N)NC(=O)[C@@H](CCCNC(=N)N)NC(=O)[C@@H](CCC(N)=O)NC(=O)[C@@H](CCCNC(=N)N)NC(=O)[C@@H](CCCNC(=N)N)NC(=O)[C@@H](CCCCN)NC(=O)[C@@H](CCCCN)NC(=O)[C@@H](CCCNC(=N)N)NC(=O)CN)C(=O)O [DTat-BK] (H-G[dR][dK][dK][dR][dR][dQ][dR][dR][dR]GGGRPPGFSPFR-OH; N-terminus and C-terminus assumed)
- colony number (agonist effect) (MDA-MB-231 cells): did not increase colony number
- colony surface area (agonist effect) (MDA-MB-231 cells): increase in colony surface area
- EC50 [1]: 350 ± 1 nM
- IC50 (human B2R): 110 ± 4 nM
